## Clc1ccccc1C(c1ccccc1)(c1ccccc1)n1ccnc1
In 1,4-dioxane, 288.15 K
  solubility (mole fraction): 0.0385
In 1,4-dioxane, 293.15 K
  solubility (mole fraction): 0.0441
In 1,4-dioxane, 298.15 K
  solubility (mole fraction): 0.05
In 1,4-dioxane, 303.15 K
  solubility (mole fraction): 0.0568
In 1,4-dioxane, 308.15 K
  solubility (mole fraction): 0.0643
In 1,4-dioxane, 313.15 K
  solubility (mole fraction): 0.0731
In 1,4-dioxane, 318.15 K
  solubility (mole fraction): 0.0813
In 1,4-dioxane, 323.15 K
  solubility (mole fraction): 0.091
In acetonitrile, 278.15 K
  solubility (mole fraction): 0.00173
In acetonitrile, 283.15 K
  solubility (mole fraction): 0.00212
In acetonitrile, 288.15 K
  solubility (mole fraction): 0.00264
In acetonitrile, 293.15 K
  solubility (mole fraction): 0.00316
In acetonitrile, 298.15 K
  solubility (mole fraction): 0.00378
In acetonitrile, 303.15 K
  solubility (mole fraction): 0.00453
In acetonitrile, 308.15 K
  solubility (mole fraction): 0.00539
In acetonitrile, 313.15 K
  solubility (mole fraction): 0.00636
In acetonitrile, 318.15 K
  solubility (mole fraction): 0.00741
In acetonitrile, 323.15 K
  solubility (mole fraction): 0.00886
In isopropanol, 278.15 K
  solubility (mole fraction): 0.00782
In isopropanol, 283.15 K
  solubility (mole fraction): 0.00947
In isopropanol, 288.15 K
  solubility (mole fraction): 0.0114
In isopropanol, 293.15 K
  solubility (mole fraction): 0.0137
In isopropanol, 298.15 K
  solubility (mole fraction): 0.0164
In isopropanol, 303.15 K
  solubility (mole fraction): 0.0195
In isopropanol, 308.15 K
  solubility (mole fraction): 0.0228
In isopropanol, 313.15 K
  solubility (mole fraction): 0.0266
In isopropanol, 318.15 K
  solubility (mole fraction): 0.031
In isopropanol, 323.15 K
  solubility (mole fraction): 0.036
In n-propanol, 278.15 K
  solubility (mole fraction): 0.0125
In n-propanol, 283.15 K
  solubility (mole fraction): 0.0151
In n-propanol, 288.15 K
  solubility (mole fraction): 0.0181
In n-propanol, 293.15 K
  solubility (mole fraction): 0.0215
In n-propanol, 298.15 K
  solubility (mole fraction): 0.0257
In n-propanol, 303.15 K
  solubility (mole fraction): 0.0301
In n-propanol, 308.15 K
  solubility (mole fraction): 0.0353
In n-propanol, 313.15 K
  solubility (mole fraction): 0.0413
In n-propanol, 318.15 K
  solubility (mole fraction): 0.0477
In n-propanol, 323.15 K
  solubility (mole fraction): 0.0554
In water, 278.15 K
  solubility (mole fraction): 9.28e-09
In water, 283.15 K
  solubility (mole fraction): 1.22e-08
In water, 288.15 K
  solubility (mole fraction): 1.56e-08
In water, 293.15 K
  solubility (mole fraction): 1.98e-08
In water, 298.15 K
  solubility (mole fraction): 2.47e-08
In water, 303.15 K
  solubility (mole fraction): 3.11e-08
In water, 308.15 K
  solubility (mole fraction): 3.85e-08
In water, 313.15 K
  solubility (mole fraction): 4.78e-08
In water, 318.15 K
  solubility (mole fraction): 5.9e-08
In water, 323.15 K
  solubility (mole fraction): 7.07e-08
